{"source": "patent US20210171589A1", "about": "“TRUNCATED CARTILAGE-HOMING PEPTIDES AND PEPTIDE COMPLEXES AND METHODS OF USE THEREOF” (BLAZE BIOSCIENCE, INC., priority 2018, published 2021)", "key": {"cartilage": {"system": "cartilage", "assay": "Peptide homing with kidney ligation (autoradiography)", "assay_type": "in vivo, Female Harlan athymic nude mice", "details": "mice with ligated kidneys, 50-100 nmol via tail vein injection", "procedure": "This example describes a dosing scheme for administering peptides to mice in conjunction with kidney ligation. Different dosages of the peptides of SEQ ID NO:149 and SEQ ID NO:150 were administered to Female Harlan athymic nude mice, weighing 20 g-25 g, via tail vein injection (n=2 mice per peptide). The experiment was done in duplicates. The kidneys were ligated to prevent renal filtration of the peptides. Each peptide was radiolabeled by methylating lysines and the N-terminus, so the actual binding agent may contain methyl or dimethyl lysine(s) and a methylated or dimethylated amino terminus.\nA target dosage of 50-100 nmol of each peptide carrying 10-25 uCi of ^14C was administered to Female Harlan athymic nude mice while anesthetized. Each peptide was allowed to freely circulate within the animal before the animals were euthanized and sectioned.\nThis example illustrates peptide homing to cartilage of mice with kidneys that were ligated prior to peptide administration. At the end of the dosing period in EXAMPLE 4, mice were frozen in a hexane/dry ice bath and then frozen in a block of carboxymethylcellulose. […]"}, "cartilage and kidneys": {"system": "cartilage and kidneys", "assay": "Peptide homing with intact kidneys (autoradiography)", "assay_type": "in vivo, Female Harlan athymic nude mice", "procedure": "Additionally, the peptide can be retained in cartilage for hours after treatment. The SEQ ID NO: 150 peptide was radiolabeled as in EXAMPLE 4 and 100 nmol of peptide was injected into a mouse with intact kidneys.\nThis example describes a dosing scheme for administering peptides to mice without kidney ligation. The peptide administered had the sequence of SEQ ID NO: 150. The peptide was radiolabeled by methylating lysines and the N-terminus, so the actual binding agent may contain methyl or dimethyl lysine(s) and a methylated or dimethylated amino terminus.\nA target dosage of 100 nmol of each peptide carrying 10-25 μCi of ^14C was administered to Female Harlan athymic nude mice by a tail vein injection. Each peptide was allowed to freely circulate within the animal for either 4 hours or 24 hours before the animals were euthanized and sectioned.\nThis example illustrates peptide homing to cartilage in animals with intact kidneys. At the end of the 4 hour or 24 hour dosing periods in EXAMPLE 6, mice were frozen in a hexane/dry ice bath and then frozen in a block of carboxymethylcellulose. […]"}, "[1]": {"system": "cartilage (intervertebral discs, knee joints)", "assay": "Whole body autoradiography of radiolabeled cartilage homing peptides", "assay_type": "in vivo, Female Harlan athymic nude mice", "details": "for Signal of folded knotted peptide as compared to the linearized peptide of SEQ ID NO: 218: TABLE 8 versus TABLE 9; for Homing of radiolabeled peptide to cartilage: mice, 100 nmol via tail vein injection, 5 minutes to 48 hours", "procedure": "This example illustrates peptide homing to cartilage mice 5 minutes to 48 hours after administration of a radiolabeled peptide. Signal from the radiolabeled peptides was found in all types of cartilage at each time point examined. Each peptide was radiolabeled by methylating […] as described in EXAMPLE 2. As such, the peptide may contain methyl or dimethyl lysines and a methylated or dimethlyated amino terminus. A dose of 100 nmol radiolabeled peptide was administered via tail vein injection in Female Harlan athymic nude mice, weighing 20-25 g. The experiment was done in duplicate (n=2 animals per group). Each radiolabeled peptide was allowed to freely circulate within the animal for the described time period before the animals were euthanized and sectioned.\nWhole body autoradiography (WBA) sagittal sectioning was performed as follows. At the end of the dosing period, mice were frozen in a hexane/dry ice bath and then embedded in a frozen block of carboxymethylcellulose. […] Sections were allowed to dessicate in a freezer prior to imaging. For the autoradiography imaging, tape mounted thin sections were freeze dried and radioactive samples were exposed to phosphoimager plates. These plates were developed and the signal (densitometry) from each organ was normalized to the signal found in the cardiac blood of each animal. A signal in tissue darker than the signal expected from blood in that tissue indicates accumulation in a region, tissue, structure, or cell."}, "[2]": {"assay": "Stability testing of peptide in solution, RP-HPLC", "assay_type": "physicochemical", "details": "5 mg/mL in 50 mM Tris, 5% Mannitol, pH 7.6", "procedure": "This example describes stability testing of peptides of the present disclosure. A 5 mg/mL solution of SEQ ID NO: 149 (also disclosed as SEQ ID NO: 46; non-GS version of SEQ ID NO: 149/SEQ ID NO: 46 are shown in SEQ ID NO: 128 and SEQ ID NO: 205) was prepared in 50 mM Tris, 5% Mannitol, pH 7.6. The stability of SEQ ID NO: 149 in solution was assessed by stressing the sample at 40° C. for 10 days and analyzed by RP-HPLC side-by-side with an unstressed sample prepared under the same conditions and stored at −20° C. […] This change was predominantly the result of an increase in area of one predominant impurity peak eluting after the main peak in the sample that was exposed to the higher temperature. No other impurities present in the initial sample increased substantially and no substantial new impurities were seen."}, "[3]": {"system": "cartilage (intervertebral discs, knee joints)", "assay": "Whole body autoradiography of radiolabeled cartilage homing peptides", "assay_type": "in vivo, Female Harlan athymic nude mice"}}, "note": "Bridge positions count the residues as written; N and C are the ends. Peptide text beside a SMILES is read from it."}
{"compound": "CC[C@H](C)[C@@H]1NC(=O)[C@@H]2CSSC[C@H](NC(=O)[C@H](CCCCN)NC(=O)[C@@H](NC(=O)[C@H](CC(N)=O)NC(=O)[C@@H](NC(=O)[C@@H]3CCCN3C(=O)[C@@H](NC(=O)CNC(=O)[C@H](CO)NC(=O)CN)C(C)C)[C@@H](C)CC)C(C)C)C(=O)N[C@@H](CCCNC(=N)N)C(=O)NCC(=O)N[C@@H](CO)C(=O)N[C@@H](CCCNC(=N)N)C(=O)N[C@@H](CC(=O)O)C(=O)N[C@H]3CSSC[C@H](NC(=O)[C@H](CCCCN)NC(=O)[C@H](CO)NC(=O)[C@H](CC(N)=O)NC1=O)C(=O)N[C@@H](Cc1c[nH]cn1)C(=O)N[C@H](C(=O)N[C@H](C(=O)N1CCC[C@H]1C(=O)O)[C@@H](C)O)CSSC[C@H](NC(=O)[C@@H]1CCCN1C(=O)[C@H](CC(=O)O)NC(=O)[C@H](CC(C)C)NC3=O)C(=O)N[C@@H](CCCCN)C(=O)N[C@@H](CCCCN)C(=O)N[C@@H](C)C(=O)NCC(=O)N[C@@H](CCSC)C(=O)N[C@@H](CCCNC(=N)N)C(=O)N[C@@H](Cc1ccccc1)C(=O)NCC(=O)N[C@@H](CCCCN)C(=O)N2", "note": "[SEQ ID NO: 150] (H-GSGVPINVKCRGSRDCLDPCKKAGMRFGKCINSKCHCTP-OH; disulfide 10-30, 16-35, 20-37; N-terminus and C-terminus assumed)", "values": [{"measurement": "Peptide distribution (14C signal)", "setting": "cartilage", "value": "distribution in joint and other cartilage"}, {"measurement": "Peptide distribution (14C signal)", "setting": "cartilage and kidneys; mice with intact kidneys, 100 nmol via tail vein injection, 4 hours or 24 hours", "value": "distribution in joint and other cartilage as well as kidneys"}, {"measurement": "Retention and tissue distribution in cartilage", "setting": "cartilage and kidneys; mouse with intact kidneys, 100 nmol, 24 hours after administration", "value": "retention of and the tissue distribution in the cartilage"}]}
{"compound": "GSGVPINVRCRGSRDCLDPCRRAGMRFGRCINSRCHCTP [SEQ ID NO: 149]", "values": [{"measurement": "Signal of folded knotted peptide as compared to the linearized peptide of SEQ ID NO: 218", "setting": "[1]; at 3 hours", "value": "~20", "unit": "fold"}, {"measurement": "Signal of folded knotted peptide as compared to the linearized peptide of SEQ ID NO: 218", "setting": "[1]; at 24 hours", "value": "~50", "unit": "fold"}, {"measurement": "Signal of radiolabeled peptide in IVD as a Percentage of Blood", "setting": "[1]; intervertebral discs, 0.08 hours after 100 nmol via tail vein injection", "value": "164 Percentage of Blood"}, {"measurement": "Signal of radiolabeled peptide in IVD as a Percentage of Blood", "setting": "[1]; intervertebral discs, 0.5 hours after 100 nmol via tail vein injection", "value": "369 Percentage of Blood"}, {"measurement": "Signal of radiolabeled peptide in IVD as a Percentage of Blood", "setting": "[1]; intervertebral discs, 1 hour after 100 nmol via tail vein injection", "value": "961 Percentage of Blood"}, {"measurement": "Signal of radiolabeled peptide in IVD as a Percentage of Blood", "setting": "[1]; intervertebral discs, 3 hours after 100 nmol via tail vein injection", "value": "3213 Percentage of Blood"}, {"measurement": "Signal of radiolabeled peptide in IVD as a Percentage of Blood", "setting": "[1]; intervertebral discs, 8 hours after 100 nmol via tail vein injection", "value": "3777 Percentage of Blood"}, {"measurement": "Signal of radiolabeled peptide in IVD as a Percentage of Blood", "setting": "[1]; intervertebral discs, 24 hours after 100 nmol via tail vein injection", "value": "5391 Percentage of Blood"}, {"measurement": "Signal of radiolabeled peptide in IVD as a Percentage of Blood", "setting": "[1]; intervertebral discs, 48 hours after 100 nmol via tail vein injection", "value": "3320 Percentage of Blood"}, {"measurement": "Signal of radiolabeled peptide in Knee Joints as a Percentage of Blood", "setting": "[1]; 0.08 hours after 100 nmol via tail vein injection", "value": "404 Percentage of Blood"}, {"measurement": "Signal of radiolabeled peptide in Knee Joints as a Percentage of Blood", "setting": "[1]; 0.5 hours after 100 nmol via tail vein injection", "value": "510 Percentage of Blood"}, {"measurement": "Signal of radiolabeled peptide in Knee Joints as a Percentage of Blood", "setting": "[1]; 1 hour after 100 nmol via tail vein injection", "value": "1114 Percentage of Blood"}, {"measurement": "Signal of radiolabeled peptide in Knee Joints as a Percentage of Blood", "setting": "[1]; 3 hours after 100 nmol via tail vein injection", "value": "4059 Percentage of Blood"}, {"measurement": "Signal of radiolabeled peptide in Knee Joints as a Percentage of Blood", "setting": "[1]; 8 hours after 100 nmol via tail vein injection", "value": "4990 Percentage of Blood"}, {"measurement": "Signal of radiolabeled peptide in Knee Joints as a Percentage of Blood", "setting": "[1]; 24 hours after 100 nmol via tail vein injection", "value": "2137 Percentage of Blood"}, {"measurement": "Signal of radiolabeled peptide in Knee Joints as a Percentage of Blood", "setting": "[1]; 48 hours after 100 nmol via tail vein injection", "value": "843 Percentage of Blood"}, {"measurement": "Homing of radiolabeled peptide to cartilage", "setting": "[1]", "value": "homed to and accumulated in the cartilage"}, {"measurement": "Purity by RP-HPLC of stressed sample", "setting": "[2]; 40° C. for 10 days", "value": 93.5, "unit": "%"}, {"measurement": "Visual inspection of the samples (solubility, precipitation)", "setting": "[2]; 40° C. for 10 days versus −20° C.", "value": "no change in solubility"}, {"measurement": "Initial purity by RP-HPLC (non-stressed sample)", "setting": "[2]; stored at −20° C.", "value": 96.4, "unit": "%"}]}
{"compound": "GSGVPINVRSRGSRDSLDPSRRAGMRFGRSINSRSHSTP [SEQ ID NO: 218, reference compound]", "values": [{"measurement": "Signal of radiolabeled peptide in IVD as a Percentage of Blood", "setting": "[1]; 3 hr, Intact Kidneys", "value": "177 Percentage of Blood"}, {"measurement": "Homing of radiolabeled peptide to cartilage", "setting": "[1]", "value": "homed to cartilage to a much lesser extent"}, {"measurement": "Signal of radiolabeled peptide in IVD as a Percentage of Blood", "setting": "[3]; 3 hr, Ligated Kidneys", "value": "117 Percentage of Blood"}, {"measurement": "Signal of radiolabeled peptide in IVD as a Percentage of Blood", "setting": "[3]; 24 hr, Intact Kidneys", "value": "104 Percentage of Blood"}]}
{"compound": "GSKCRGSRDCLDPCKKAGMRFGKCINSKCHCTP [SEQ ID NO: 27]", "values": [{"measurement": "Peptide distribution (14C signal)", "setting": "cartilage", "value": "distribution in nasal, spinal, tracheal, and other cartilage"}]}
